In this assay the test system is bacterial infections (bone, wound, respiratory and other). Description: PET scan imaging of human subjects after intravenous injection of the 18F-labeled fluoroquinolone. Format: in vivo. As to conditions: 700 to 1400 MBq i.v.; PET scan 30 to 60 minutes after injection; patients with various bacterial infections vs healthy subjects. The protocol:
[^18F]ciprofloxacin administration to human subjects suspected of having bacterial infection and PET monitoring of the localization of [^18F] in the subjects. Healthy subjects are injected intravenously with 700 to 1400 MBq of [^18F]ciprofloxacin. In order to correct for the attenuation of photons by tissue, a transmission scan with two 400-MBq pin sources or from CT data (if the scan is acquired on a PET/CT scanner) is recorded after obtaining the emission scan. Thirty to sixty minutes after injection of [^18F]ciprofloxacin, data are obtained by PET scan of the regions of concern (such as the whole body or a specific area such as the hip or chest, depending on the clinical need) . Each subject is positioned supine on the imaging bed. The data on healthy subjects establish the appearance of the distribution of [^18F]ciprofloxacin in uninfected patients.
The same protocol is used on patients diagnosed by other criteria with bacterial bone infections, bacterial wound infections, bacterial respiratory infections, and other bacterial infections.
Healthy subjects and subjects confirmed by conventional diagnostic methods to have bacterial infections of various types are injected intravenously with 700 to 1400 MBq of [^18F]fleroxacin. After 30 to 60 minutes, the subjects are subjected to PET scan imaging as described in Example 1.

`O=C(O)c1cn(C2CC2)c2cc(N3CCNCC3)c(F)cc2c1=O` [[^18F]ciprofloxacin]: the “PET scan results of patients with bacterial infections versus healthy volunteers” value is “distinguishable from the PET scan results of healthy volunteers”.
The result for [^18F]fleroxacin reads “distinguishable from the PET scan results of healthy volunteers”.

The values above are taken from patent publication US20060110787A1, “Use of fluorine-18-labeled fluoroquinolone antibiotics for diagnosing and monitoring bacterial infection” (The Board Trustees of the University of Arkansas, priority 2004, published 2006).
